From patent US11286268B1, “EIF4E-inhibiting compounds and methods” (EFFECTOR THERAPEUTICS, INC., priority 2019, dated 2022)

These molecules were tested against recombinant eIF4E (Homo sapiens (Human), UniProt P06730) (assay: Fluorescence polarization competition assay for eIF4E binding potency). Conditions: inhibition of eIF4E/EDA-m7GDP-ATTO-550 binding; calculated IC50 values, Table 4B; read-out: IC50.
In short: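 Competition of test compound against 20 nM EDA-m^7GDP-ATTO-550 for 75 nM recombinant eIF4E, pre-incubated 5 min, in 20 mM Tris pH 7.5, 100 mM NaCl, 1 mM DTT, 0.02% Tween-20, 1% DMSO. Equilibrated 30 min at room temperature, dark; fluorescence polarization read. IC50 from 8-point, 3-fold dilution series.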

recombinant eIF4E, sequence (P06730 whole entry): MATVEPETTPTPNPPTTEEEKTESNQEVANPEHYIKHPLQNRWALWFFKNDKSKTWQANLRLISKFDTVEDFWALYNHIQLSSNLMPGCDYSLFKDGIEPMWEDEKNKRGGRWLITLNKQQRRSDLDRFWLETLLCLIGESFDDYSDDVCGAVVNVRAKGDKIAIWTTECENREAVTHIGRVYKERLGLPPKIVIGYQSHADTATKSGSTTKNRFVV

SMILES | IC50
Cc1nc2cnc(N(C)C3CCN(CC(C)(C)C(F)(F)F)CC3)c(C#N)c2c(=O)n1CC#Cc1ccc(Cl)cc1-c1ccnc2c(C(=O)O)csc12 [compound 1586] | 31.8 nM
Cc1nc2cnc(N(C)C3CCN(CC4(C(F)(F)F)CCC4)CC3)c(C#N)c2c(=O)n1CC#Cc1ccc(Cl)cc1-c1ccnc2c(C(=O)O)csc12 [compound 1588] | 26.4 nM
Cc1nc2cnc(N(C)C3CCN(C4CC(F)(F)C4)CC3)c(C#N)c2c(=O)n1CC#Cc1ccc(Cl)cc1-c1ccnc2c(C(=O)NS(C)(=O)=O)csc12 [compound 1589] | 12.4 nM
Cc1nc2cnc(N3CCC(N(CC(F)F)C4COC4)CC3)c(C#N)c2c(=O)n1CC#Cc1ccc(Cl)cc1-c1ccnc2c(C(=O)NS(=O)(=O)CC(F)F)csc12 [compound 1591] | 36.2 nM
Cc1nc2cnc(N3CCC(N(C)C4CC(F)(F)C4)CC3)c(C#N)c2c(=O)n1CC#Cc1ccc(Cl)cc1-c1ccnc2c(C(=O)O)csc12 [compound 1592] | 20.3 nM
Cc1nc2cnc(N(C)C3CCN(CC(F)(F)F)CC3)c(C#N)c2c(=O)n1CC#Cc1ccc(Cl)cc1-c1ccnc2c(C(=O)NS(=O)(=O)CC(F)(F)F)csc12 [compound 1593] | 61.6 nM
Cc1nc2cnc(N(C)C3CCN(CC(C)(F)F)CC3)c(C#N)c2c(=O)n1CC#Cc1ccc(Cl)cc1-c1ccnc2c(C(N)=O)csc12 [compound 1596] | 654 nM
Cc1nc2cnc(N(C)C3CCN(CC(F)(F)C4(O)CCC4)CC3)c(C#N)c2c(=O)n1CC#Cc1ccc(Cl)cc1-c1ccnc2c(C(=O)O)csc12 [compound 1598] | 37.5 nM
CCN(c1ncc2nc(C)n(CC#Cc3ccc(Cl)cc3-c3ccnc4c(C(=O)O)csc34)c(=O)c2c1C#N)C1CCN(C2CC2)CC1 [compound 1600] | 20.3 nM
Cc1nc2cnc(N(C)C3CCN([C@H]4C[C@@H](OC(F)(F)F)C4)CC3)c(C#N)c2c(=O)n1CC#Cc1ccc(Cl)cc1-c1ccnc2c(C(=O)NS(=O)(=O)C3COC3)csc12 [compound 1610] | 6.02 nM
CCOP(=O)(OCC)c1csc2c(-c3cc(Cl)ccc3OCCn3c(C)nc4cc(C(F)(F)F)c(N5CCN(C)CC5)c(C#N)c4c3=O)ccnc12 [compound 1612] | 13.7 nM

More lines, in order of falling IC50, values ahead:

IC50 | SMILES
442 nM | Cc1nc2cnc(N(C)C3CCN(CC(F)(F)F)CC3)c(C#N)c2c(=O)n1CC#Cc1ccc(Cl)cc1-c1ccnc2c(C(N)=O)csc12 [compound 1594]
54.8 nM | Cc1nc2cnc(N(C)C3CCN(CC(C)(F)F)CC3)c(C#N)c2c(=O)n1CC#Cc1ccc(Cl)cc1-c1ccnc2c(C(=O)NS(=O)(=O)CC(F)(F)F)csc12 [compound 1595]
39.7 nM | Cc1nc2cnc(N(C)C3CCN(CC4(C(F)(F)F)CC4)CC3)c(C#N)c2c(=O)n1CC#Cc1ccc(Cl)cc1-c1ccnc2c(C(=O)O)csc12 [compound 1587]
36 nM | Cc1nc2cnc(N(C)C3CCN(C4(C(F)F)COC4)CC3)c(C#N)c2c(=O)n1CC#Cc1ccc(Cl)cc1-c1ccnc2c(C(=O)NS(C)(=O)=O)csc12 [compound 1590]
22.1 nM | Cc1nc2cnc(N(C)C3CCN(CC(F)F)CC3)c(C#N)c2c(=O)n1CC#Cc1ccc(Cl)cc1-c1ccnc2c(C(=O)NS(=O)(=O)CC(F)(F)F)csc12 [compound 1597]
14.6 nM | CCN(c1ncc2nc(C)n(CC#Cc3ccc(Cl)cc3-c3ccnc4c(C(=O)NS(C)(=O)=O)csc34)c(=O)c2c1C#N)C1CCN(CC(F)(F)C(F)F)CC1 [compound 1607]
8.05 nM | CCN(c1ncc2nc(C)n(CC#Cc3ccc(Cl)cc3-c3ccnc4c(C(=O)NS(C)(=O)=O)csc34)c(=O)c2c1C#N)C1CCN(C2CC(F)(F)C2)CC1 [compound 1601]
3.88 nM | Cc1nc2cnc(N(C)C3CCN([C@H]4C[C@H](F)C4)CC3)c(C#N)c2c(=O)n1CC#Cc1ccc(Cl)cc1-c1ccnc2c(C(=O)NS(C)(=O)=O)csc12 [compound 1602]
3.85 nM | Cc1nc2cnc(N(C)C3CCN([C@H]4C[C@@H](OC(F)(F)F)C4)CC3)c(C#N)c2c(=O)n1CC#Cc1ccc(Cl)cc1-c1ccnc2c(C(=O)NS(=O)(=O)c3ccccn3)csc12 [compound 1611]
